Experimental data published in patent US10681909B2, “Herbicidal triazoles” (FMC Corporation, priority 2014, dated 2020).

Key:
[1] = tested on: kochia; test: Test A postemergence; assay type: in vivo, Kochia scoparia; settings: 0 to 100 scale (0 no effect, 100 complete control), approx. 10 d
In short: (§1)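 Visual injury score, 0 (no effect) to 100 (complete control), taken about 10 d after treatment against untreated greenhouse controls. Chemicals formulated in non-phytotoxic solvent plus surfactant; preemergence by directed soil spray onto sown loam/sand, postemergence onto one- to two-leaf plants.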

[2] = tested on: oat, wild; test: Test D preemergence; assay type: in vivo, Avena fatua; settings: for Plant response rating (0 to 100), Oat, Wild: 16 g ai/ha, 0 is no effect, 100 is complete control; for Plant response rating: Oat, Wild: scale 0 to 100
Source text: (§2) Seeds of plant species selected from bluegrass (annual bluegrass, Poa annua), blackgrass (Alopecurus myosuroides), canarygrass (Phalaris minor), chickweed (common chickweed, Stellaria media), galium (catchweed bedstraw, Galium aparine), bromegrass, down (downy bromegrass, Bromus tectorum), Russian thistle (Salsola kali), field poppy (Papaver rhoeas), field violet (Viola arvensis), foxtail, green (green foxtail, Setaria viridis), deadnettle (henbit deadnettle, Lamium amplexicaule), ryegrass, Ital. (Italian ryegrass, Lolium multiflorum), kochia (Kochia scoparia), lambsquarters (Chenopodium album), oilseed rape (Brassica napus), pigweed (Amaranthus retroflexus), chamomile (scentless chamomile, Matricaria inodora), speedwell (bird's-eye speedwell, Veronica persica), barley, spring (spring barley, Hordeum vulgare), wheat, spring (spring wheat, Triticum aestivum), buckwheat, wild (wild buckwheat, Polygonum convolvulus), wild mustard (Sinapis arvensis), oat, wild (wild oat, Avena fatua), radish, wild (wild radish, Raphanus raphanistrum), […]), barley, winter (winter barley, Hordeum vulgare), and wheat, winter (winter wheat, Triticum aestivum) were planted into a silt loam soil and treated preemergence with test chemicals formulated in a non-phytotoxic solvent mixture which included a surfactant. At the same time, these species were planted in pots containing Sunshine Redi-Earth® planting medium comprising spaghnum peat moss, vermiculite, starter nutrients and dolomitic limestone and treated with postemergence applications of the test chemicals formulated in the same manner. Plants ranged in height from 2 to 18 cm (1- to 4-leaf stage). Treated plants and controls were maintained in a controlled growth environment for 14 to 21 d after which time all species were compared to controls and visually evaluated. […] A dash (-) response means no test result.

[3] = tested on: radish, wild; test: Test D postemergence; assay type: in vivo, Raphanus raphanistrum; settings: scale 0 to 100
Source text: as §2

[4] = tested on: wheat, spring; test: Test D preemergence; assay type: in vivo, Triticum aestivum; settings: for Plant response rating (0 to 100), Wheat, Spring: 16 g ai/ha, 0 is no effect, 100 is complete control; for Plant response rating: Wheat, Spring: scale 0 to 100
Source text: as §2

[5] = tested on: wheat, winter; test: Test D preemergence; assay type: in vivo, Triticum aestivum; settings: for Plant response rating (0 to 100), Wheat, Winter: 16 g ai/ha, 0 is no effect, 100 is complete control; for Plant response rating: Wheat, Winter: scale 0 to 100
Source text: as §2

[6] = tested on: oilseed rape; test: Test D postemergence; assay type: in vivo, Brassica napus; settings: scale 0 to 100
Source text: as §2

[7] = tested on: buckwheat, wild; test: Test D postemergence; assay type: in vivo, Polygonum convolvulus; settings: scale 0 to 100
Source text: as §2

[8] = tested on: oilseed rape; test: Test D preemergence; assay type: in vivo, Brassica napus; settings: for Plant response rating (0 to 100), Oilseed Rape: 16 g ai/ha, 0 is no effect, 100 is complete control; for Plant response rating: Oilseed Rape: scale 0 to 100
Source text: as §2

[9] = tested on: ryegrass, Italian; test: Test A preemergence; assay type: in vivo, Lolium multiflorum; settings: 0 to 100 scale (0 no effect, 100 complete control)
In short: as §1

[10] = tested on: galium; test: Test D postemergence; assay type: in vivo, Galium aparine; settings: scale 0 to 100
Source text: as §2

[11] = tested on: galium; test: Test D preemergence; assay type: in vivo, Galium aparine; settings: for Plant response rating (0 to 100), Galium: 16 g ai/ha, 0 is no effect, 100 is complete control; for Plant response rating: Galium: scale 0 to 100
Source text: as §2

[12] = tested on: blackgrass; test: Test A postemergence; assay type: in vivo, Alopecurus myosuroides; settings: 0 to 100 scale (0 no effect, 100 complete control), approx. 10 d
In short: as §1

SMILES | Plant response rating, Kochia ([1]; 125 g ai/ha) | Plant response rating, Kochia ([1]; 500 g ai/ha) | Plant response rating (0 to 100), Oat, Wild [2] | Plant response rating: Oat, Wild ([2]; 62 g ai/ha) | Plant response rating: Oat, Wild ([2]; 125 g ai/ha) | Plant response rating: Radish, Wild ([3]; 16 g ai/ha) | Plant response rating: Radish, Wild ([3]; 31 g ai/ha) | Plant response rating: Radish, Wild ([3]; 62 g ai/ha) | Plant response rating: Radish, Wild ([3]; 125 g ai/ha) | Plant response rating (0 to 100), Wheat, Spring [4] | Plant response rating: Wheat, Spring ([4]; 62 g ai/ha) | Plant response rating: Wheat, Spring ([4]; 125 g ai/ha) | Plant response rating (0 to 100), Wheat, Winter [5] | Plant response rating: Wheat, Winter ([5]; 62 g ai/ha) | Plant response rating: Wheat, Winter ([5]; 125 g ai/ha) | Plant response rating: Oilseed Rape ([6]; 16 g ai/ha) | Plant response rating: Oilseed Rape ([6]; 31 g ai/ha) | Plant response rating: Oilseed Rape ([6]; 62 g ai/ha) | Plant response rating: Oilseed Rape ([6]; 125 g ai/ha) | Plant response rating: Buckwheat, Wild ([7]; 16 g ai/ha) | further results
COc1nc(-c2ccc(Cl)cc2)nn1Cc1ccnc(C(F)(F)F)c1 [Compound 28] | 90 | 90 | 35 | 30 | 35 | 85 | 95 | 95 | 100 | 10 | 20 | 25 | 15 | 25 | 20 | 65 | 75 | 75 | 85 | 60 | Plant response rating: Buckwheat, Wild ([7]; 31 g ai/ha): 65; Plant response rating: Buckwheat, Wild ([7]; 62 g ai/ha): 75; Plant response rating: Buckwheat, Wild ([7]; 125 g ai/ha): 95; Plant response rating (0 to 100), Oilseed Rape [8]: 10; Plant response rating: Oilseed Rape ([8]; 62 g ai/ha): 15; Plant response rating: Oilseed Rape ([8]; 125 g ai/ha): 15; Plant response rating, Ryegrass, Italian ([9]; 125 g ai/ha): 20; Plant response rating, Ryegrass, Italian ([9]; 500 g ai/ha, approx. 10 d): 90; Plant response rating: Galium ([10]; 16 g ai/ha): 65; Plant response rating: Galium ([10]; 31 g ai/ha): 70; Plant response rating: Galium ([10]; 62 g ai/ha): 75; Plant response rating: Galium ([10]; 125 g ai/ha): 80; Plant response rating (0 to 100), Galium [11]: 65; Plant response rating: Galium ([11]; 62 g ai/ha): 75; Plant response rating: Galium ([11]; 125 g ai/ha): 80; Plant response rating, Blackgrass ([12]; 125 g ai/ha): 10; Plant response rating, Blackgrass ([12]; 500 g ai/ha): 40
Fc1ccc(-c2nc(OCC(F)(F)F)n(Cc3ccnc(C(F)(F)F)c3)n2)cc1 [Compound 30] | 90 | 90 | 45 | 70 | 80 | 95 | 95 | 98 | 100 | 25 | 35 | 45 | 15 | 25 | 35 | 90 | 75 | 100 | 100 | 70 | Plant response rating: Buckwheat, Wild ([7]; 31 g ai/ha): 70; Plant response rating: Buckwheat, Wild ([7]; 62 g ai/ha): 85; Plant response rating: Buckwheat, Wild ([7]; 125 g ai/ha): 85; Plant response rating (0 to 100), Oilseed Rape [8]: 10; Plant response rating: Oilseed Rape ([8]; 62 g ai/ha): 35; Plant response rating: Oilseed Rape ([8]; 125 g ai/ha): 55; Plant response rating, Ryegrass, Italian ([9]; 125 g ai/ha): 90; Plant response rating, Ryegrass, Italian ([9]; 500 g ai/ha, approx. 10 d): 100; Plant response rating: Galium ([10]; 16 g ai/ha): 70; Plant response rating: Galium ([10]; 31 g ai/ha): 75; Plant response rating: Galium ([10]; 62 g ai/ha): 80; Plant response rating: Galium ([10]; 125 g ai/ha): 85; Plant response rating (0 to 100), Galium [11]: 70; Plant response rating: Galium ([11]; 62 g ai/ha): 80; Plant response rating: Galium ([11]; 125 g ai/ha): 85; Plant response rating, Blackgrass ([12]; 125 g ai/ha): 30; Plant response rating, Blackgrass ([12]; 500 g ai/ha): 80
FC(F)(F)COc1nc(-c2ccc(Cl)cc2)nn1Cc1ccnc(C(F)(F)F)c1 [Compound 31] | 90 | 90 | 35 | 55 | 75 | 95 | 95 | 95 | 100 | 30 | 40 | 45 | 20 | 20 | 30 | 80 | 85 | 90 | 100 | 65 | Plant response rating: Buckwheat, Wild ([7]; 31 g ai/ha): 75; Plant response rating: Buckwheat, Wild ([7]; 62 g ai/ha): 75; Plant response rating: Buckwheat, Wild ([7]; 125 g ai/ha): 75; Plant response rating (0 to 100), Oilseed Rape [8]: 10; Plant response rating: Oilseed Rape ([8]; 62 g ai/ha): 35; Plant response rating: Oilseed Rape ([8]; 125 g ai/ha): 35; Plant response rating, Ryegrass, Italian ([9]; 125 g ai/ha): 90; Plant response rating, Ryegrass, Italian ([9]; 500 g ai/ha): 100; Plant response rating: Galium ([10]; 16 g ai/ha): 70; Plant response rating: Galium ([10]; 31 g ai/ha): 75; Plant response rating: Galium ([10]; 62 g ai/ha): 80; Plant response rating: Galium ([10]; 125 g ai/ha): 90; Plant response rating (0 to 100), Galium [11]: 70; Plant response rating: Galium ([11]; 62 g ai/ha): 80; Plant response rating: Galium ([11]; 125 g ai/ha): 90; Plant response rating, Blackgrass ([12]; 125 g ai/ha): 50; Plant response rating, Blackgrass ([12]; 500 g ai/ha): 80
